In paper PMC12469358, “Synthesis of novel phenoxyacetohydrazide compounds and evaluation therapeutic potential exhibit as anti-inflammatory and anti-angiogenic” (PLOS One, 2025):
Values after ≈ are worked out from the molar mass of the structure shown. “Also recorded” adds a separate entry of the source. Where two headings read alike, the source gives them in different places. Values belong to the compound of their own block, whether it stands above or below them.

Key:
[1] = system: human red blood cell (HRBC) membrane; experiment: Human red blood cell (HRBC) membrane stabilization assay; type: cell-based; settings: for IC50: Homo sapiens, Erythrocyte
Protocol: The human red blood cell (HRBC) membrane stabilization method was employed to evaluate the anti-inflammatory activity of the compounds, as previously described. For test the in vitro anti-inflammatory activity of synthesized compounds (6e-h), blood samples were collected from healthy volunteers who had not taken NSAIDs for 14 days. The blood was mixed with an equal volume of sterilized Alsever’s solution, centrifuged at 3000 rpm, and the packed cells were washed with isotonic saline (0.9% w/v NaCl). A 10% cell suspension was then prepared using isotonic saline. The test compounds were dissolved in DMSO to prepare solutions at concentrations of 50, 100, 150, 200, and 250 μg/ml. For each concentration, a mixture containing 1 ml of phosphate buffer, 2 ml of hypotonic saline, and 0.5 ml of the HRBC suspension was prepared. The samples were incubated at 37°C for 30 minutes and centrifuged at 3000 rpm for 20 minutes. The hemoglobin content in the supernatant was determined spectrophotometrically at 560 nm. Indomethacin at the same concentrations (50–250 μg/ml) was used as the reference standard, and a control sample was prepared without the test compounds. The percentage hemolysis was calculated by considering the hemolysis in the control group as 100%. The percentage of HRBC membrane stabilization or protection was determined using the following formula:
percent protection=100−((OD of drug treated sample/OD of control) ×100).

[2] = system: alkali burn-induced corneal neovascularization (CNV); experiment: Alkali burn-induced corneal neovascularization; type: in vivo; settings: alkali-burnt cornea
Protocol: Corneal neovascularization (CNV) was induced through alkali injury following a standard protocol with minor modifications. Swiss albino rats were first examined to ensure the absence of ophthalmic diseases before the alkali burn procedure. The animals were divided into three groups, each comprising six animals (n = 6 per group):
• Group I: Normal, treated with phosphate-buffered saline (PBS). • Group II: Control group, treated with 1 µg of recombinant VEGF (rVEGF). • Group III: Treated group, receiving rVEGF165 ([…]) and compound 6e (5 µg/ml).
An alkali burn was induced in the right eye of animals in Groups II and III after administering general anesthesia via intraperitoneal injection of ketamine (1 ml/kg) and chlorpromazine (1 ml/kg). A 3-mm diameter piece of Whatman filter paper soaked in […] of 1 mol/L NaOH was applied to the center of the cornea for 30 seconds, followed by irrigation of the treated cornea with 60 ml of normal saline.
Group II animals were subsequently treated with 1 µg of rVEGF applied to the right eye. The extent of CNV was quantified through photographic documentation 48 hours after the alkali burn and rVEGF treatment. […] The inhibitory effect of compound 6e on neovascularization was evaluated through photographic documentation 24 hours after treatment with compound 6e.

[3] = system: rVEGF165-induced angiogenesis in CAM explants; experiment: Ex vivo CAM assay; type: in vivo, chick
[4] = system: tissue myeloperoxidase (MPO) activity in carrageenan-treated paws; experiment: Tissue myeloperoxidase (MPO) activity assay; type: in vivo; settings: rat, 6e 25 mg/kg, 4 hours after carrageenan
Protocol: Rats were treated either with or without positive control (indomethacin at 10 mg/kg body weight) or compound 6e (25 mg/kg body weight) 2 hours prior to the injection of carrageenan into the right hind paw. The activity of tissue myeloperoxidase (MPO) was assessed 4 hours post-carrageenan injection. Tissue samples were collected and placed in 0.75 ml of 80 mM phosphate-buffered saline (PBS, pH 5.4) containing 0.5% hexadecyltrimethylammonium bromide (HTAB). The samples were homogenized for 45 seconds at 0°C using a homogenizer. The homogenate was transferred into microfuge tubes, and the homogenizer vessel was rinsed with an additional 0.75 ml of HTAB in PBS. The wash was combined with the homogenate to yield a total sample volume of 1.5 ml, which was then centrifuged at 12,000 × g at 4°C for 15 minutes. For the MPO assay, 30 μl of the resulting supernatant was added to 96-well microtiter plates. To each well, 200 μl of a reaction mixture was added, consisting of 100 μl of 80 mM PBS (pH 5.4), 85 μl of 0.22 M PBS (pH 5.4), and 15 μl of 0.017% hydrogen peroxide. […] Enzyme activity was determined spectrophotometrically by measuring absorbance at 630 nm using a plate reader. Results were expressed as MPO activity per milligram of tissue (MOD/mg tissue). […] All samples were measured in six times (n = 6 technical replicates) for statistical accuracy.

[5] = system: rVEGF165-induced angiogenesis in chick chorioallantoic membrane (CAM); experiment: In vivo chorioallantoic membrane (CAM) assay; settings: for H&E staining: neovascular structures and inflammatory infiltration: Fig 23 legend, H&E staining of in vivo CAM
Protocol: The in vivo CAM assay was performed according to the standard protocol. All the eggs were wiped with 75% alcohol prior to incubation. Then the fertilized eggs were incubated at 37°C with 60% relative humidity. On the 11th day of incubation, all the eggs divided into three treatment groups contain minimum 6 eggs as mentioned below.
• Group I – Normal [PBS (Phosphate buffer saline) (10 mM Sodium phosphate mono basic+ 1.8 mM Sodium phosphate dibasic+140 mM sodium chloride, pH 7.4) alone] • Group II – Control [1µg of rVEGF165 alone] • Group III – 5 µg of 6e + 1 µg of rVEGF165.
A rectangular window was made in the egg shell and Whatman filter paper (3 mm diameter) containing with or without compound 6e (5 µg) was placed on the CAM and the window were sealed using sterile vegetable wrap. Windows were opened after 48h, i.e., on 13th day of incubation, observed by two independent observers and measured for change in the Micro Vessel Density (MVD) in the area beneath the cover slip and photographed using Sony steady shot DSC-W610 camera.

[6] = system: carrageenan-induced paw edema; experiment: Carrageenan-induced paw edema; type: in vivo; settings: rat, 6e 25 mg/kg, 5 h after carrageenan injection
From the text: Female Swiss albino rats were selected for the study to evaluate the anti-inflammatory effects of compound 6e against carrageenan-induced paw edema. The animals were divided randomly into four groups, with each group consisting of six experimental animals (n = 6): • Group 1: Normal animals (untreated). • Group 2: Control group (saline-treated). • Group 3: Positive control group (indomethacin-treated). • Group 4: Animals treated with compound 6e. Prior to the experiment, animals in Group 2 were administered saline (5 mL/kg), animals in Group 3 received the positive control indomethacin (10 mg/kg), and animals in Group 4 were treated with compound 6e (25 mg/kg). All animals were left undisturbed in their respective cages for 2 hours.

[7] = Table 6 series 6a-h, read-out: HRBC membrane stabilization “IC50” Value
[8] = Table 7, 50-250 µg concentration series, comparison with indomethacin, read-out: “IC50”
[9] = Table 7, 50-250 µg concentration series, comparison with indomethacin

Compound: O=C(COc1ccc(Cl)cc1)NNC(=O)C1CN(Cc2ccccc2)CCO1 (centres unmarked) [6a, 4-Benzyl-N’-(2-(4-chlorophenoxy)acetyl)morpholine-2-carbohydrazide]
- IC50 [1, 7]: 311 µg/mL (≈ 770 µM)

Compound: O=C(COc1ccc(Br)cc1)NNC(=O)C1CN(Cc2ccccc2)CCO1 (centres unmarked) [6b, 4-Benzyl-N’-(2-(4-bromophenoxy)acetyl)morpholine-2-carbohydrazide]
- IC50 [1, 7]: 222 µg/mL (≈ 495 µM)

Compound: Cc1ccccc1OCC(=O)NNC(=O)C1CN(Cc2ccccc2)CCO1 (centres unmarked) [6c, 4-Benzyl-N’-(2-(o-tolyloxy)acetyl)morpholine-2-carbohydrazide]
- IC50 [1, 7]: 289 µg/mL (≈ 754 µM)

Compound: Cc1ccc(OCC(=O)NNC(=O)C2CN(Cc3ccccc3)CCO2)c(C)c1 (centres unmarked) [6d, 4-Benzyl-N’-(2-(2,4-dimethylphenoxy)acetyl)morpholine-2-carbohydrazide]
- IC50 [1, 7]: 199 µg/mL (≈ 501 µM)

Compound: O=C(CCCOc1ccc(F)cc1)NNC(=O)C1CN(Cc2ccccc2)CCO1 (centres unmarked) [6e, 4-Benzyl-N’-(4-(4-fluorophenoxy)butanoyl)morpholine-2-carbohydrazide]
- % Inhibition ([1]; 50 µg): 28.88%
- % Inhibition ([1]; 100 µg): 34.13%
- % Inhibition ([1]; 150 µg): 42.02%
- % Inhibition ([1]; 200 µg): 59.99%
- % Inhibition ([1]; 250 µg): 67.86%
- IC50 [1, 7]: 155 µg/mL (≈ 373 µM)
- IC50 [1, 8]: 164 µg/mL (≈ 395 µM)
- “IC50” [1, 9]: 165.988 µg/mL
- total vessel length in the rat cornea [2]: diminution in the total vessel length; also recorded: reduction in total vessel length
- corneal neovascularization (CNV) ([2]; rat, 6e 5 µg with rVEGF165 10 µg): significant decrease in CNV
- VEGF-induced angiogenic response, ex vivo CAM ([3]; co-administration with rVEGF165): Marked suppression of new blood vessel formation; also recorded: effectively inhibited this VEGF-induced angiogenic response in a dose-dependent manner
- Total vessel length of ex-vivo CAM ([3]; rVEGF165-induced increase, n = 6): significantly attenuated
- MPO activity in carrageenan-treated paws [4]: markedly prevented the elevation of MPO activity
- rVEGF165-induced angiogenic response / neovascularization, in vivo CAM ([5]; 5 µg 6e + 1 µg rVEGF165, 48 h): inhibited this rVEGF165-induced angiogenic response in a dose-dependent manner; also recorded: Marked suppression of neovascularization
- H&E staining: neovascular structures and inflammatory infiltration [5]: minimal inflammatory infiltration and absence of neovessel
- Total vessel length of in vivo CAM ([5]; versus control, n = 6): A significant reduction in vessel length
- paw swelling ratio (percent increase of paw volume) [6]: statistically significant reduction in the paw swelling ratio; also recorded: significantly inhibited the ratio of paw swelling

Further lines, with some results ahead:

- IC50 [1, 7]: 301 µg/mL (≈ 664 µM)
Compound: CC(C)c1ccc(OCC(=O)NNC(=O)C2CN(Cc3ccccc3)CCO2)c(C(C)C)c1 (centres unmarked) [6f, 4-Benzyl-N’-(2-(2,4-diisopropylphenoxy)acetyl)morpholine-2-carbohydrazide]

- IC50 [1, 7]: 279 µg/mL (≈ 586 µM)
Compound: O=C(CCCOc1ccc(Br)cc1)NNC(=O)C1CN(Cc2ccccc2)CCO1 (centres unmarked) [6g, 4-Benzyl-N’-(4-(4-bromophenoxy)butanoyl)morpholine-2-carbohydrazide]

- IC50 [1, 7]: 255 µg/mL (≈ 576 µM)
Compound: O=C(CCCOc1cccc([N+](=O)[O-])c1)NNC(=O)C1CN(Cc2ccccc2)CCO1 (centres unmarked) [6h, 4-Benzyl-N’-(4-(3-nitrophenoxy)butanoyl)morpholine-2-carbohydrazide]

- IC50 [1, 8]: 122 µg/mL (≈ 340 µM)
- “IC50” [1, 9]: 122.01 µg/mL
Compound: COc1ccc2c(c1)c(CC(=O)O)c(C)n2C(=O)c1ccc(Cl)cc1 [Indomethacin, reference compound]
- % Inhibition ([1]; 50 µg): 33.10%
- % Inhibition ([1]; 100 µg): 46.11%
- % Inhibition ([1]; 150 µg): 53.99%
- % Inhibition ([1]; 200 µg): 64.98%
- % Inhibition ([1]; 250 µg): 76.94%
- H&E staining: neovascular structures and inflammatory infiltration [5]: Moderate reduction in neovascular structures
